Measurements taken from US20070276141A1, “Preparation of Pharmaceutical Salts of [1,4] - Bipiperidine” (priority 2003, published 2007).

Experiment: Relative stability of solid forms
Type: physicochemical
Details: test conditions not given

Cc1ccc(S(=O)(=O)NC(=O)N2CCC(N3CCC(Oc4ccc(Cl)c(Cl)c4)CC3)CC2)cc1 [Hydrate Form A, N-[[4-(3,4-dichlorophenoxy)[1,4′-bipiperidin]-1′-yl]carbonyl]-4-methyl-benzenesulfonamide]
stability compared with other solid forms of the sodium salt: more stable than Hydrate Forms B and D and Solvated Form E
